Test systems include HT29 colon; A549 NSCLC; MDA-MB-435; KM12 colon; OVCAR-5 ovarian; 786-0 renal; OVCAR-3 ovarian; SF-539 CNS; UACC-257 melanoma; NCI-H522 lung.
Holding throughout (test): NCI anticancer screen, dose series, 48 h

SMILES strings stand for the structures.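 Exposure lasted 48 hours, with cells grown in 96-well plates and compounds tested at five concentrations. The concentration for full growth arrest is given as TGI.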 Where a SMILES comes first, the peptide text is derived from it. [ ]: non-standard residue; d: D form. The star is where a group is joined. mTyr = N[CH](Cc1cccc(O)c1)C(=O)O; Cbz = O=C(OCc1ccccc1)*; OBn = c1ccc(CO*)cc1

Consider `COc1ccc(CSc2ccccc2Cn2cccc2)cc1OC`, for which the TGI in the assay on HT29 colon, in the assay on A549 NSCLC, with MDA-MB-435, in the assay on KM12 colon, with OVCAR-5 ovarian and with 786-0 renal was greater than 100 µM in each case. The TGI in the assay on OVCAR-3 ovarian, in the assay on SF-539 CNS and in the assay on UACC-257 melanoma was greater than 100 µM in each case.

In the case of `CCNC1=C(NC(=O)CC)C(=O)c2ccccc2C1=O`, the TGI in the assay on HT29 colon, in the assay on A549 NSCLC, in the assay with NCI-H522 lung, in the assay with KM12 colon, in the assay with OVCAR-5 ovarian and with 786-0 renal was greater than 100 µM throughout. The TGI in the assay on OVCAR-3 ovarian, with SF-539 CNS and with UACC-257 melanoma was greater than 100 µM in each case.

Consider `C=CCOC(=O)C1C2OC3(C(C(=O)OC)=C2C(=O)OC)c2ccccc2CCC13` (configuration not stated), for which the TGI in the assay on HT29 colon, in the assay on A549 NSCLC, in the assay on MDA-MB-435, in the assay with KM12 colon, in the assay with OVCAR-5 ovarian and in the assay with 786-0 renal was greater than 10 µM each time. The TGI in the assay with OVCAR-3 ovarian, in the assay with SF-539 CNS and with UACC-257 melanoma was greater than 10 µM in each case.

Regarding `CN(C)CCCN1c2ccccc2CCc2ccc([N+](=O)[O-])cc21`, the TGI in the assay with HT29 colon is 46.5 µM; in the assay with A549 NSCLC, greater than 100 µM; in the assay on NCI-H522 lung, 36.7 µM; in the assay on MDA-MB-435, 36 µM; in the assay with KM12 colon it was 33.8 µM; with OVCAR-5 ovarian, greater than 100 µM. In addition, the TGI is greater than 100 µM in the assay on 786-0 renal, greater than 100 µM in the assay on OVCAR-3 ovarian and 31.8 µM with UACC-257 melanoma.

For the compound `CN(CCCNC(=O)c1nn(-c2ccc(Cl)cc2Cl)c2c1Cc1ccccc1-2)CCCNC(=O)c1nn(-c2ccc(Cl)cc2Cl)c2c1Cc1ccccc1-2`, the TGI was found to be 3.42 µM with HT29 colon; 3.64 µM in the assay with A549 NSCLC; 2.9 µM in the assay with NCI-H522 lung; 2.57 µM with MDA-MB-435; 4.01 µM in the assay on KM12 colon; 2.98 µM with OVCAR-5 ovarian. Besides, the TGI in the assay with 786-0 renal turned out to be 3.21 µM; in the assay with OVCAR-3 ovarian it was 3.09 µM; in the assay on UACC-257 melanoma it was 3.35 µM.

As to `Cc1ccc(/C(O)=C/C(=O)C(=O)NN=C(c2ccccc2)c2ccccc2)cc1`, the TGI in the assay on HT29 colon, with A549 NSCLC, in the assay with MDA-MB-435, in the assay on KM12 colon, with OVCAR-5 ovarian and with 786-0 renal was greater than 100 µM each time. Also, the TGI with OVCAR-3 ovarian, in the assay on SF-539 CNS and with UACC-257 melanoma was greater than 100 µM in each case.

As to `O=C(Cc1ccccc1)NN1C(=O)C(Cl)C1c1ccccc1O` (configuration not stated), the TGI in the assay on HT29 colon, with A549 NSCLC, in the assay on NCI-H522 lung, in the assay on OVCAR-5 ovarian, with 786-0 renal and in the assay with OVCAR-3 ovarian was greater than 100 µM each time. Further, the TGI in the assay on UACC-257 melanoma was found to be 71.5 µM.

As for `CCN(CC)Cc1sc2nc3ccccc3n2c1-c1ccc(OC)cc1`, the TGI with HT29 colon was 40.7 µM; in the assay on A549 NSCLC it was greater than 100 µM; in the assay on NCI-H522 lung it was greater than 100 µM; in the assay on MDA-MB-435, 12.9 µM; in the assay with KM12 colon, greater than 100 µM; in the assay on OVCAR-5 ovarian it was greater than 100 µM. The TGI in the assay on 786-0 renal, in the assay on OVCAR-3 ovarian and in the assay with UACC-257 melanoma was greater than 100 µM in each case.

Regarding `COc1cc(/C=C(/C#N)C(N)=O)ccc1O`, the TGI in the assay on HT29 colon, in the assay with A549 NSCLC, with NCI-H522 lung, in the assay on KM12 colon, in the assay with OVCAR-5 ovarian and in the assay on OVCAR-3 ovarian was greater than 100 µM throughout. For the same compound, the TGI in the assay with SF-539 CNS and in the assay on UACC-257 melanoma was greater than 100 µM in each case.

As for `O=[As](O)(O)c1ccc(N=Nc2ccc(O)cc2)cc1`, the TGI in the assay on HT29 colon, in the assay with A549 NSCLC, in the assay with NCI-H522 lung, in the assay on MDA-MB-435, in the assay on KM12 colon and in the assay on OVCAR-5 ovarian was greater than 100 µM each time. The TGI with 786-0 renal and in the assay on OVCAR-3 ovarian was greater than 100 µM each time.

For the compound `COC(=O)C(Cc1cccc(O)c1)NC(=O)C(CC(=O)OCc1ccccc1)NC(=O)OCc1ccccc1` (configuration not stated) (Cbz-Asp(OBn)-[mTyr]-OMe; configuration not given here), the TGI in the assay with HT29 colon, in the assay with A549 NSCLC, with KM12 colon, in the assay with OVCAR-5 ovarian, in the assay on 786-0 renal and in the assay on UACC-257 melanoma was greater than 100 µM each time.

With `Cc1ccc(CC(C)N)cc1` (configuration not stated), the TGI with HT29 colon, with A549 NSCLC, in the assay with NCI-H522 lung, with KM12 colon, with OVCAR-5 ovarian and in the assay with 786-0 renal was greater than 100 µM throughout. Further, the TGI in the assay on OVCAR-3 ovarian, in the assay with SF-539 CNS and in the assay on UACC-257 melanoma was greater than 100 µM each time.

Turning to `COc1cc2c(cc1OC)C1(c3ccc(Cl)cc3)ON=C(c3ccccc3)N1CS2` (configuration not stated), the TGI with HT29 colon, in the assay with A549 NSCLC, in the assay on NCI-H522 lung, in the assay with KM12 colon, with OVCAR-5 ovarian and in the assay with 786-0 renal was greater than 100 µM each time. Further, the TGI in the assay with OVCAR-3 ovarian, with SF-539 CNS and in the assay with UACC-257 melanoma was greater than 100 µM each time.

For the compound `O=C(CC(=O)Nc1ccccc1)N/N=C/c1cc(N=Nc2ccc(Br)cc2)ccc1O`, the TGI with A549 NSCLC is greater than 10 µM; in the assay with KM12 colon it was greater than 10 µM; with 786-0 renal, greater than 10 µM; with SF-539 CNS, greater than 10 µM; in the assay with UACC-257 melanoma, 7.71 µM.

Turning to `FC(F)(F)c1ccc2nc(Sc3ccccn3)cnc2c1`, the TGI with HT29 colon is greater than 100 µM; with A549 NSCLC, greater than 100 µM; in the assay with NCI-H522 lung it was 43.7 µM; in the assay on MDA-MB-435 it was greater than 100 µM; in the assay on KM12 colon, greater than 100 µM; in the assay on OVCAR-5 ovarian it was greater than 100 µM. Also, the figures for the TGI in the assay on 786-0 renal, in the assay with SF-539 CNS and in the assay on UACC-257 melanoma were 62.1 µM, 35.9 µM and greater than 100 µM, respectively.

As for `CC(NC(C)(C)C)C(=O)c1cccc(Cl)c1` (configuration not stated), the TGI in the assay on HT29 colon, with A549 NSCLC, in the assay on NCI-H522 lung, with KM12 colon, with 786-0 renal and in the assay on OVCAR-3 ovarian was greater than 100 µM in each case. In addition, the TGI with SF-539 CNS and in the assay with UACC-257 melanoma was greater than 100 µM each time.

Values taken from PubChem BioAssay (NCI).
